Some test systems named below: OVCAR-8 ovarian; UACC-257 melanoma; U251 CNS; BT-549 breast; SK-OV-3 ovarian; RXF 393 renal; DU-145 prostate; MCF7 breast; SR leukemia; HT29 colon.
Experiment in all cases: growth of human tumour cells (NCI), 48 h

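The compound was tested at five concentrations on cells cultured in 96-well plates, with a 48-hour exposure period. TGI: total growth inhibition.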

Consider `Cc1oc2nc(N(C)C)n3cnnc3c2c1C`, for which the TGI in the assay on OVCAR-8 ovarian, in the assay with UACC-257 melanoma, in the assay on U251 CNS, in the assay with BT-549 breast, in the assay on SK-OV-3 ovarian and with RXF 393 renal was over 100 µM each time. Also, the TGI in the assay with DU-145 prostate, with MCF7 breast, with SR leukemia and in the assay with HT29 colon was over 100 µM throughout.
Consider `CC1C(c2ccccc2)NC(c2ccccc2)CC1(N)C#N` (stereo not given), for which the TGI with OVCAR-8 ovarian, with UACC-257 melanoma, in the assay with U251 CNS, in the assay on BT-549 breast, with SK-OV-3 ovarian and in the assay with RXF 393 renal was over 100 µM throughout. Also, the TGI in the assay on DU-145 prostate, with MCF7 breast, in the assay on SR leukemia and with HT29 colon was over 100 µM in each case.
Regarding `COC(=O)/C=C\C(C#N)(C#N)N=Cc1ccc(Br)cc1`, the TGI with OVCAR-8 ovarian is 21.5 µM; in the assay on UACC-257 melanoma, 28 µM; in the assay with U251 CNS, 33.3 µM; in the assay with BT-549 breast, 25.2 µM; with SK-OV-3 ovarian, 33.6 µM; with RXF 393 renal, 17.8 µM. Moreover, the TGI in the assay with DU-145 prostate is 16.7 µM; in the assay with MCF7 breast it was 17.1 µM; with SR leukemia, over 100 µM; in the assay on HT29 colon, 6.22 µM.
For `Cc1cc(S(=O)(=O)Nc2n[nH]c(Nc3ccccc3)n2)c(SSc2cc(Cl)c(C)cc2S(=O)(=O)Nc2n[nH]c(Nc3ccccc3)n2)cc1Cl`, the TGI was over 100 µM in the assay on OVCAR-8 ovarian; over 100 µM in the assay on UACC-257 melanoma; over 100 µM in the assay with U251 CNS; over 100 µM in the assay with BT-549 breast; over 100 µM in the assay with SK-OV-3 ovarian; over 10 µM with RXF 393 renal. The TGI is over 100 µM with DU-145 prostate, over 10 µM with MCF7 breast, over 100 µM in the assay with SR leukemia and over 100 µM in the assay with HT29 colon.
On to `CCC(C)N1CN(c2ccccc2)C2(CCN(CCCC3(c4ccc(F)cc4)OCCO3)CC2)C1=O` (stereo not given), for which the TGI in the assay on OVCAR-8 ovarian turned out to be 20.6 µM; in the assay on UACC-257 melanoma it was 4.24 µM; with U251 CNS it was 10.9 µM; in the assay on BT-549 breast it was 5.82 µM; with SK-OV-3 ovarian, 56 µM; in the assay with RXF 393 renal it was 26.5 µM. In addition, the TGI with DU-145 prostate is over 57.3 µM; with MCF7 breast, 7.58 µM; in the assay on SR leukemia, 23.5 µM; in the assay with HT29 colon, over 37.5 µM.
Take `O=C(O)C1CSC2(CCCN(Cc3ccccc3)C2)N1` (stereo not given): the TGI in the assay on OVCAR-8 ovarian, in the assay with UACC-257 melanoma, in the assay with U251 CNS, in the assay on BT-549 breast, in the assay with SK-OV-3 ovarian and in the assay with RXF 393 renal was over 100 µM throughout. In addition, the TGI was over 100 µM in the assay with DU-145 prostate, over 100 µM in the assay on MCF7 breast, 34.4 µM in the assay on SR leukemia and over 100 µM in the assay on HT29 colon.
`COC(=O)C(CNC(=O)/C=C/c1ccc(OC(C)=O)c(OC(C)=O)c1)NC(=O)/C=C/c1ccc(OC(C)=O)c(OC(C)=O)c1` (stereo not given): the TGI with OVCAR-8 ovarian, in the assay with UACC-257 melanoma, in the assay with U251 CNS, in the assay on BT-549 breast, with SK-OV-3 ovarian and in the assay on RXF 393 renal was over 100 µM each time. Further, the TGI in the assay on DU-145 prostate, in the assay on MCF7 breast, in the assay on SR leukemia and with HT29 colon was over 100 µM each time.
In the case of `COc1ccc(C2NC(N)=C(C#N)C3=C2C(C)CCC3)cc1OC` (stereo not given), the TGI in the assay on OVCAR-8 ovarian, in the assay with UACC-257 melanoma, in the assay with U251 CNS, with BT-549 breast, in the assay with SK-OV-3 ovarian and in the assay on RXF 393 renal was over 100 µM each time. Besides, the TGI was over 100 µM with DU-145 prostate, over 100 µM in the assay on MCF7 breast, 23 µM with SR leukemia and over 100 µM with HT29 colon.
For `CSc1c(C)n([O-])c2cc(Cl)c(Cl)cc2[n+]1=O`, the TGI in the assay on OVCAR-8 ovarian is 32.3 µM; with UACC-257 melanoma it was 34.8 µM; with U251 CNS it was 46.3 µM; in the assay on BT-549 breast, 32.7 µM; with SK-OV-3 ovarian, over 100 µM; in the assay with RXF 393 renal, 45.6 µM. In addition, the TGI in the assay on DU-145 prostate stood at 30.9 µM; in the assay on MCF7 breast it was 45 µM; in the assay with SR leukemia, 5.69 µM; with HT29 colon it was 33.7 µM.
Consider `COc1ccc(/N=N/C(=NNC(=O)c2ccc(C)cc2)c2ccc(N(C)C)cc2)cc1`, for which the TGI with OVCAR-8 ovarian is over 100 µM; in the assay on UACC-257 melanoma, over 91.4 µM; in the assay on U251 CNS, over 100 µM; with BT-549 breast, 82.9 µM; in the assay with SK-OV-3 ovarian, over 100 µM; in the assay on RXF 393 renal it was over 100 µM. The TGI with DU-145 prostate was over 72.7 µM; in the assay on MCF7 breast, 56.1 µM; in the assay on SR leukemia it was 88.7 µM; in the assay on HT29 colon it was over 89.8 µM.

(Values after PubChem BioAssay (NCI).)
